Values of other authors in patent US9867849B2, “Methods of treating or ameliorating skin conditions with a magnetic dipole stabilized solution” (REVEN PHARMACEUTICALS, INC., priority 2010, dated 2018).

Tests used:
[1] = 121 patients with hepatocellular carcinoma undergoing conventional therapy; 45 mg/day oral
[2] = test system: blast cell numbers in bone marrow and/or peripheral blood; conditions: of those receiving other medication concomitantly; 20-135 mg/day orally or 10-50 mg/day intravenously
[3] = 241 osteoporotic women, 45 mg/day vitamin K2 and 150 mg elemental calcium, after two years
[4] = higher intake of vitamin K2
[5] = more than 500 postmenopausal women; dietary intake
[6] = rats; 100 mg/kg body weight daily
[7] = rabbits

**Q.** Which survival [1] does the source give for `CC(C)=CCC/C(C)=C/CC/C(C)=C/CC/C(C)=C/CC1=C(C)C(=O)c2ccccc2C1=O` [Vitamin K2] here?
**A.** significant increase in survival

**Q.** What about the “patients in whom blast cell numbers in bone marrow and/or peripheral blood were reduced” value [2] of the same molecule?
**A.** ~71%

**Q.** And the “lumbar bone mineral density” value [3]?
**A.** maintain lumbar bone mineral density

**Q.** What about the fracture incidence ([3]; 30% in the control group) of the same molecule?
**A.** 10%

**Q.** What about the “reduction of prostate cancer risk” value [4] of the same molecule?
**A.** 35%

**Q.** What about the “coronary calcification (association with intake)” value [5] of the same molecule?
**A.** associated with the trend toward decreasing coronary calcification

**Q.** And the “increase in calcium in both kidneys and aorta induced by megadose of synthetic vitamin D” value [6]?
**A.** inhibited

**Q.** And the “atherosclerotic plaque progression in the aorta and pulmonary arteries” value ([7]; 1-10 mg/kg daily for 10 weeks)?
**A.** inhibited

**Q.** And the “ester cholesterol deposition in the aorta” value ([7]; compared to the control group)?
**A.** reduce

**Q.** And the “factor X activity in plasma” value ([7]; compared to the control group)?
**A.** reduce

**Q.** What about the lipid peroxidation ([7]; compared to the control group) of the same molecule?
**A.** reduce

**Q.** What about the total cholesterol levels ([7]; compared to the control group) of the same molecule?
**A.** reduce
